We go through four molecules from US8877946B2, “Benzylidene-indolinone compounds and their medical use” (National University of Singapore, priority 2011, dated 2014).

≈ marks a conversion by molar mass, not a printed value. Where two headings read alike, the source gives them in different places.

The subject of one series is IMR 90. Nature of the series: MTT antiproliferative assay on non-malignant IMR 90 fibroblasts. The conditions noted are these: non-malignant human lung fibroblast IMR 90, MTT, 72 h. The class given is cell-based. The source says: (§1) MTT was purchased from DUCHEFA Biochemie ([…]). Sunitinib, and sodium dodecyl sulfate, bovine serum albuminwere obtained from Sigma Aldrich (Singapore). Sorafenib was purchase from Ontario Chem. Fetal bovine serum (FBS) was obtained from Invitrogen. Human hepatocellular carcinoma cells (HuH-7 and Hep G2), and human diploid fibroblast strain (IMR 90). HuH7 was obtained as gifts from Dr Ho Han Kiat, Department of Pharmacy, NUS. IMR90 and Hep G2 were purchased from American Type Culture Collection (ATCC). HuH-7 cells were cultured in DMEM (Dulbecco's Modified Eagle Medium, high glucose) with 10% v/v fetal bovine serum (FBS), 100 mg/L penicillin G and 100 mg/L streptomycin. IMR 90 cell were cultured in EMEM (Eagle's Minimum Essential Medium), with 10% v/v FBS and 100 mg/L penicillin G and 100 mg/L streptomycin. The cells were sub-cultured when HuH7 or Hep G2 reached a density of 70-80×10^5 cell/T75 flask, and IMR 90 reached 20×10^5 cell/T75 flask. Cells were used within 2-10 passages for viability experiments.
(§2) The anti-proliferative activity of the test compounds were determined by the MTT assay. An aliquot (200 μL, 3×10^4 cells/mL for HuH7, 3.75×10^4 cells/mL for Hep G2, and 2×10^4 cells/mL for IMR 90) of medium was added to each well of the microtitre plate. […] The existing medium was removed from each well and replaced by fresh medium (200 μL) containing a known concentration of test compound. The final concentration of DMSO in each well was maintained at 0.5% v/v. (1% v/v was also utilized if the compounds were not soluble) The test compounds were incubated with the cells for another 72 h at 37 deg C., 5% CO2. The medium was then removed from the well and replaced with FBS free medium (200 μL) and MTT (50 μL of 2 mg/mL solution in phosphate buffer saline, pH 7.4). The phosphate buffer saline comprises 10 mM of potassium phosphate and 137 mM sodium chloride. After incubation (3 h) at 37 deg C., 5% CO2, the supernatant was removed and a solution of 200 μL DMSO and 25 μL Sorenson buffer (0.1 M glycine, 0.1 M sodium chloride, adjusted to pH 10.5 with 0.1 M sodium hydroxide) was added to dissolve the formazan crystals in each well. Vehicle control were cells grown in 1% v/v DMSO/Medium for 72 h, 37 deg C., 5% CO2 while blank controls were wells that contained only 200 μL DMSO and 25 μL Sorenson buffer. Absorbances were measured at 570 nm on a microplate reader (Tecan, Infinite 200). The viability of cells at a given concentration of test compound was determined from the expression:
(§3) [formula] where abs_compound=absorbance of wells containing cells and test compound, abs_vehicle (Not the same as above. Change to abs_vehicle)=absorbance of vehicle control and abs_blank=absorbance of blank control.
(§4) Each concentration of test compound was evaluated at least 3 times on separate occasions, and two different stock solution were used. The IC50 value (concentration that inhibited 50% of cell growth) was determined from the sigmoidal curve obtained by plotting percentage viability versus logarithmic concentration of test compound using GraphPad Prism 5 (San Diego, USA).
(Tetrazolium dyes change colour on reduction, which living cells bring about.)

The subject of the next series is CYP1A1. Briefly: EROD assay, induction of CYP1A1 activity in HuH7 cells. The class given is cell-based, human. The conditions noted are these: for induction of CYP450 (CYP1A1, EROD) activity: broad range of concentrations spanning growth inhibitory concentrations, FIG. 2. The source says:
The induction of CYP1A1 activity was monitored by the 7-ethoxyresorufin O-deethylase (EROD) assay. EROD is a CYP1A1 enzyme and induction of its activity would result in the formation of more resorufin, a fluorescent compound. By monitoring resorufin levels in cells that are exposed to test compound and comparing the levels with those in untreated cells, it is possible to identify compounds that induce EROD activity.
Readings were taken at λexcitation of 530 nm and λemission of 590 nm on a fluorometer (Name the plate reader). Background fluorescence of the test compound was determined at the same wavelengths to take into account its contribution to the observed readings. Readings of “blank” wells that contained only media and “control” wells with only HuH7 cells in media (with 1% DMSO) were also determined. β-napthoflavone (BNF), a known inducer of CYP1A1 activity (give ref) was used as a positive control. The extent to which EROD activity was induced is given by the expression: Degree of induction=(FCells+Test Compound−FBlank)/(FControl−FBlank)
Where Fcells+test compound=fluorescence of wells containing treated cells; FBlank=fluorescence of well containing media only; FControl=fluorescence readings of wells containing untreated cells. The test compounds were not fluorescent at the excitation and emission wavelengths used in this assay. Two separate determinations were made for each concentration of test compound.

Another series can be described thus: PAMPA permeability (Pe). In kind it is physicochemical. The conditions noted are these: for Pe (×10^−6 cm/s): 1% lecithin in dodecane, mean of 3 determinations. As to the method: (§5) Solubility and PAMPA permeability (Pe) are important physicochemical indicators of drug-like character. Determination of aqueous solubility was carried out on Multiscreen® Solubility filter plates (Millipore-MSSLBPC10) from Millipore Corporation (MA, USA). The protocol (PC2445EN00, Millipore Corporation) was followed. Pe determinations were carried out on MultiScreen-IP PAMPA assay (donor) plates (MAIPNTR10) and MultiScreen Receiver Plates (MATRNPS50) from Millipore Corporation (USA) with 1% lecithin (L-α-phosphatidylcholine from lyophilized powder of egg yolk, Sigma Aldrich, USA) in dodecane (ReagentPlus®, Sigma Aldrich, USA) as lipid barrier.

The test system of a further series is phospho-STAT3 (Tyr 705). Briefly: Detection of phosphorylated STAT3 by immunoblot in HepG2. In kind it is cell-based, human. The conditions noted are these: FIG. 3. As for the experimental part:
Rabbit polyclonal antibodies to STAT3 was obtained from Santa Cruz Biotechnology (Santa Cruz, Calif.), and rabbit monoclonal antibodies against phospho-STAT3 (Tyr 705) were purchased from Cell Signaling Technology (Beverly, Mass.).
For detection of phopho-STAT 3 and STAT 3, treated whole-cell extracts were lysed in lysis buffer (20 mM Tris (pH 7.4), 250 mM NaCl, 2 mM EDTA (pH 8.0), 0.1% Triton X-100, 0.01 mg/ml aprotinin, 0.005 mg/ml leupeptin, 0.4 mM PMSF, and 4 mM NaVO4). Lysates were then spun at 14,000 rpm for 10 min to remove insoluble material and resolved on a 7.5% SDS gel. After electrophoresis, the proteins were electrotransferred to a nitrocellulose membrane, blocked with 5% nonfat milk, and probed with anti-phospho-STAT 3 and anti-STAT 3 antibodies (1:1,000) overnight at 4° C. The blot was washed, exposed to HRP-conjugated secondary antibodies for 1 hr, and finally examined by chemiluminescence (ECL; GE Healthcare, Little Chalfont, Buckinghamshire, UK).
For orientation: In western blotting, separated proteins are transferred to a membrane and probed.

The next series has as its system HuH7 cells. Nature of the series: MTT antiproliferative (growth inhibition) assay on HuH7 cells. The class given is cell-based, human. The conditions noted are these: Homo sapiens, Huh-7, MTT. The method in brief: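 Cells were exposed to compound for 72 h at 37° C, 5% CO2, with 0.5% v/v DMSO (1% if poorly soluble), then given MTT for 3 h. Formazan was dissolved in DMSO/Sorenson buffer and absorbance read at 570 nm; IC50 from sigmoidal fits of % viability versus log concentration.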

The next series deals with Hep G2. Nature of the series: MTT antiproliferative assay on Hep G2 cells. The class given is cell-based. The conditions noted are these: Homo sapiens, HepG2, 72 h.
Excerpt: as §1, §2, §3, §4

A short description of series [1]: Aqueous solubility on Multiscreen Solubility filter plates. In kind it is physicochemical. The conditions noted are these: aqueous solution on Multiscreen Solubility filter plates, aqueous buffer, kinetic from dmso stock, mean of 3 determinations; for solubility at 3 h: pH 7.4, agitation time 3 h; for solubility at 24 h: pH 7.4, agitation time 24 h. As for the experimental part:
as §5

Another series concerns AFP mRNA. Briefly: Determination of AFP mRNA levels by quantitative real-time PCR in HuH7 cells. The class given is cell-based, human. Particulars: 10 μM, 24 h, FIG. 1. The source says: The primer sequences were: […] reverse); [NT] (Human GADPH forward); [NT] (Human GADPH reverse).
(In general: In qPCR the cycle at which signal appears reflects the starting amount.)

[2] abbreviates: 72 h (Table 9), read-out: IC50 (μM) HuH7.
The mark [3] stands for this setting: 72 h incubation, mean and SD of 3 or more independent determinations (Tables 1-8), read-out: IC 50.

Regarding `CNS(=O)(=O)c1cccc(/C=C2/C(=O)Nc3cc(Cl)ccc32)c1` [Compound 1-18, (E)-3-(6-Chloro-2-oxo-1,2-dihydro-indol-3-ylidenemethyl)-N-methyl-benzenesulfonamide], the IC50 in the series with IMR 90 amounted to 2.1 µM; in the series with HuH7 cells (setting [2]) it was 0.54 ± 0.06 µM; in the series with HuH7 cells (setting [3]), 0.54 ± 0.06 µM; with Hep G2 it was 3.99 ± 0.43 µM. In the series on CYP1A1, the “induction of CYP450 (CYP1A1, EROD) activity” value (shortened to “induction of CYP450”) was “did not induce CYP450 activity”. The “Pe (×10^−6 cm/s)” value is recorded as 18.3 ×10^−6 cm/s in the series “PAMPA permeability (Pe)” (pH 7.4, 6 h) and 12.3 ×10^−6 cm/s in the series “PAMPA permeability (Pe)” (pH 7.4, 16 h). Further, in the series on phospho-STAT3 (Tyr 705), the “effect on p-STAT3 levels (constitutive STAT3 activation)” value (“effect on p-STAT3 levels” below) was “reduced p-STAT3 levels”. For the same molecule, the concentration in solution in series [1] (solubility at 3 h) was 8.85 µM (≈ 3.09 µg/mL). For the same molecule, the concentration in solution in series [1] (solubility at 24 h) was 2.28 µM (≈ 0.795 µg/mL). Moreover, the “effect on AFP mRNA levels” value in the series with AFP mRNA is “no significant change in AFP mRNA levels”.

Regarding `CN1C(=O)/C(=C/c2cccc(C(F)(F)F)c2)c2ccc(Cl)cc21` [Compound 1-10, (E) 6-Chloro-1-methyl-3-(3-trifluoromethyl-benzylidene)-1,3-dihydro-indol-2-one, reference compound], the IC50 in the series on IMR 90 is 9.23 ± 0.88 µM; in the series with HuH7 cells (setting [2]), 0.46 ± 0.06 µM; in the series with HuH7 cells (setting [3]), 0.46 ± 0.06 µM; in the series on Hep G2, 0.94 ± 0.18 µM. Moreover, the “induction of EROD activity at 0.05 μM” value in the series with CYP1A1 (0.05 μM, declined at higher concentrations) is given as “unusual (but reproducible) induction”. For the same molecule, in the series with CYP1A1, the “induction of CYP450” value is reported as “did not induce CYP450 activity”. Besides, the “effect on p-STAT3 levels” value with phospho-STAT3 (Tyr 705) is “did not”. Also, the “effect on AFP mRNA levels” value in the series with AFP mRNA is “reduced AFP mRNA by almost half”.

Regarding `CNS(=O)(=O)c1cccc(/C=C2/C(=O)Nc3cc(F)ccc32)c1` [Compound 3-10, (E)-3-(6-Fluoro-2-oxo-1,2-dihydro-indol-3-ylidenemethyl)-N-methyl-benzenesulphonamide], the IC50 with IMR 90 came to 10.4 ± 0.23 µM; in the series on HuH7 cells (setting [2]), 0.48 ± 0.01 µM; in the series with HuH7 cells (setting [3]) it was 0.48 ± 0.01 µM; with Hep G2, 4.4 ± 0.43 µM. For the same molecule, the “induction of CYP450” value with CYP1A1 is recorded as “did not induce CYP450 activity”. Moreover, in the series “PAMPA permeability (Pe)” (6 h to 16 h), the “decline of Pe with time” value was “½”. The “Pe (×10^−6 cm/s)” value is given as 12.9 ×10^−6 cm/s in the series “PAMPA permeability (Pe)” (pH 7.4, 6 h) and 5.95 ×10^−6 cm/s in “PAMPA permeability (Pe)” (pH 7.4, 16 h). Also, the concentration in solution in series [1] (solubility at 3 h) came to 37.6 µM (≈ 12.5 µg/mL). Also, the concentration in solution in series [1] (solubility at 24 h) was 6.32 µM (≈ 2.1 µg/mL).

Take `O=C1Nc2ccc(F)c(F)c2/C1=C/c1cccc(C(F)(F)F)c1` [Compound 6-6, (Z)-4,5-Difluoro-3-(3-trifluoromethyl-benzylidene)-1,3-dihydro-indol-2-one]: the IC50 stood at 8.1 ± 0.73 µM in the series on IMR 90, 0.54 ± 0.07 µM with HuH7 cells (setting [2]), 0.54 ± 0.07 µM in the series with HuH7 cells (setting [3]) and 0.96 ± 0.11 µM with Hep G2. Besides, the “induction of CYP450” value in the series with CYP1A1 was “did not induce CYP450 activity”. Besides, in the series with phospho-STAT3 (Tyr 705), the “effect on p-STAT3 levels” value is reported as “did not”. The “effect on AFP mRNA levels” value in the series on AFP mRNA is on record as “reduced levels to almost the same extent as 1-10”.
